In US11884661B2, “3-substituted propionic acids as αV integrin inhibitors” (BRISTOL-MYERS SQUIBB COMPANY, priority 2016, dated 2024):

molecular target: T1, human αVβ6 (Homo sapiens, UniProt P06756+P18564); assay: human αVβ6 HTRF binding assay; conditions: recombinant human αVβ6 integrin, FITC-conjugated fibronectin
T1 construct: purchased R & D systems 3817-AV
In short: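 Biotinylated recombinant αVβ6 (1.25 nM final) incubated with FITC-fibronectin (5 nM) 1 h at RT, then streptavidin-terbium (0.625 nM) added and incubated overnight at RT in the dark before HTRF read. Buffer: 20 mM Tris pH 7.4, 1 mM MgCl2, 1 mM MnCl2, 0.01% Tween 20, 0.01% BSA.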

T1 sequence (P06756 31-992 limits assumed): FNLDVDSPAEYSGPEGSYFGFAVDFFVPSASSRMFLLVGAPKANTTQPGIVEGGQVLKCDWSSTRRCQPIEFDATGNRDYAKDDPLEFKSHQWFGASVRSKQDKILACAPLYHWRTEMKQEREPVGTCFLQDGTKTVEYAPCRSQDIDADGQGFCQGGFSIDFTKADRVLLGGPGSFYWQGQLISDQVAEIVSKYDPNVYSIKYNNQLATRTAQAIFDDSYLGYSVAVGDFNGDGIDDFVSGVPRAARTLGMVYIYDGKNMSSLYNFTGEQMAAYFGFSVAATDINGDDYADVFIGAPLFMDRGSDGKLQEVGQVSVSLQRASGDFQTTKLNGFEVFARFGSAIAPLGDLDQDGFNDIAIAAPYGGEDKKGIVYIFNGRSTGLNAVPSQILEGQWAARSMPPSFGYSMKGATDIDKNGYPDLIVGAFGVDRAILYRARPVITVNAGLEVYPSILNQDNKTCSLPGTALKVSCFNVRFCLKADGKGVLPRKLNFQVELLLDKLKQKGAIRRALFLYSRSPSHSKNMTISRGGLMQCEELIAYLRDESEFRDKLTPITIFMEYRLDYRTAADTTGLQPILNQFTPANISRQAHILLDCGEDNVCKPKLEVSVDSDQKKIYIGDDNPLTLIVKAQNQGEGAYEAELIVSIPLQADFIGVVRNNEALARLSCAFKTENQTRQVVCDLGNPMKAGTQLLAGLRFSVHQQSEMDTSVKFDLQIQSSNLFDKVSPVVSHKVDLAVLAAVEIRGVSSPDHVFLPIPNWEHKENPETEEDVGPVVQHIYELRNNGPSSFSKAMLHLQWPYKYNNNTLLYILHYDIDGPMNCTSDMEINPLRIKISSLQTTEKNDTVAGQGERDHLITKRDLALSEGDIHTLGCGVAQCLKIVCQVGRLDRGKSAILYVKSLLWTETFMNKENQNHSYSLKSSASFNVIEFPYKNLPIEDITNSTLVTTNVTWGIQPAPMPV
T1 sequence (P18564 22-707 limits assumed): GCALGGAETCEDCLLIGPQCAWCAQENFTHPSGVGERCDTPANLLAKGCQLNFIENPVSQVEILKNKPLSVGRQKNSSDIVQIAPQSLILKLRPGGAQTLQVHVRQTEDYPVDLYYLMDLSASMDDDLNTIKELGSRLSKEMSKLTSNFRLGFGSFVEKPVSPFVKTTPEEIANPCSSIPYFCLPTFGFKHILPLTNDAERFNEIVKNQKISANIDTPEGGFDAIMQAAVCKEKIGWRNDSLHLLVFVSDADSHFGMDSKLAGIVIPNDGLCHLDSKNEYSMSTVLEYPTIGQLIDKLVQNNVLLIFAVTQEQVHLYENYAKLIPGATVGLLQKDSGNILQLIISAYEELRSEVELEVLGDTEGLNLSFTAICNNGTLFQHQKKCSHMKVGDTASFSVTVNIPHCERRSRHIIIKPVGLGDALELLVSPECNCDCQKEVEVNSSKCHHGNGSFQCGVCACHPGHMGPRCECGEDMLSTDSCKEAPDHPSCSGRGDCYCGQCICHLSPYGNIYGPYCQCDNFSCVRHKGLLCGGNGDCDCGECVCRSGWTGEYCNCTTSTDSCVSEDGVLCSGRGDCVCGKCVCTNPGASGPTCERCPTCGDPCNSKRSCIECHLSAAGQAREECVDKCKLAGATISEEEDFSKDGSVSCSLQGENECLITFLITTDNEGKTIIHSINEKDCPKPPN

IC50 [nM] | Structure (SMILES)
4.3 | CN(C)C(=O)c1ccc(C(CC(=O)O)c2nc(CCCCc3ccc4c(n3)NCCC4)cs2)cc1 (single isomer, unassigned) [Example 128, 3-(4-(dimethylcarbamoyl)phenyl)-3-(4-(4-(5,6,7,8-tetrahydro-1,8-naphthyridin-2-yl)butyl)thiazol-2-yl)propanoic acid]
28 | CCOc1ncc(C(CC(=O)O)c2nc(CCCCc3ccc4c(n3)NCCC4)cs2)cn1 (single isomer, unassigned) [Example 129, 3-(2-ethoxypyrimidin-5-yl)-3-(4-(4-(5,6,7,8-tetrahydro-1,8-naphthyridin-2-yl)butyl)thiazol-2-yl)propanoic acid]
2.9 | CCOc1ncc(C(CC(=O)O)c2nc(CCCCc3ccc4c(n3)NCCC4)cs2)cn1 (single isomer, unassigned) [Example 130, 3-(2-ethoxypyrimidin-5-yl)-3-(4-(4-(5,6,7,8-tetrahydro-1,8-naphthyridin-2-yl)butyl)thiazol-2-yl)propanoic acid]
2.3 | CN(C)C(=O)c1ccc(C(CC(=O)O)c2nc(CCCCc3ccc4c(n3)NCCC4)cs2)cc1F (single isomer, unassigned) [Example 131, 3-(4-(dimethylcarbamoyl)-3-fluorophenyl)-3-(4-(4-(5,6,7,8-tetrahydro-1,8-naphthyridin-2-yl)butyl)thiazol-2-yl)propanoic acid]
81 | CN(C)C(=O)c1ccc(C(CC(=O)O)c2nc(CCCCc3ccc4c(n3)NCCC4)cs2)cc1F (single isomer, unassigned) [Example 132, 3-(4-(dimethylcarbamoyl)-3-fluorophenyl)-3-(4-(4-(5,6,7,8-tetrahydro-1,8-naphthyridin-2-yl)butyl)thiazol-2-yl)propanoic acid]
86 | CN(C)c1ccc(C(CC(=O)O)c2nc(CCCc3ccc4c(n3)NCCC4)cs2)cn1 (single isomer, unassigned) [Example 133, 3-(6-(dimethylamino)pyridin-3-yl)-3-(4-(3-(5,6,7,8-tetrahydro-1,8-naphthyridin-2-yl)propyl)thiazol-2-yl)propanoic acid]
1.8 | CN(C)c1ccc(C(CC(=O)O)c2nc(CCCc3ccc4c(n3)NCCC4)cs2)cn1 (single isomer, unassigned) [Example 134, 3-(6-(dimethylamino)pyridin-3-yl)-3-(4-(3-(5,6,7,8-tetrahydro-1,8-naphthyridin-2-yl)propyl)thiazol-2-yl)propanoic acid]
4.9 | CN(C)C(=O)c1ccc(C(CC(=O)O)c2nc(CCCc3ccc4c(n3)NCCC4)cs2)cc1F (single isomer, unassigned) [Example 135, 3-(4-(dimethylcarbamoyl)-3-fluorophenyl)-3-(4-(3-(5,6,7,8-tetrahydro-1,8-naphthyridin-2-yl)propyl)thiazol-2-yl)propanoic acid]
12 | CN(C)C(=O)c1ccc(C(CC(=O)O)c2nc(CCCc3ccc4c(n3)NCCC4)cs2)cc1F (single isomer, unassigned) [Example 136, 3-(4-(dimethylcarbamoyl)-3-fluorophenyl)-3-(4-(3-(5,6,7,8-tetrahydro-1,8-naphthyridin-2-yl)propyl)thiazol-2-yl)propanoic acid]
210 | CN(C)C(=O)c1ccc(C(CC(=O)O)c2nc(CCCc3ccc4c(n3)NCCC4)cs2)cc1 (single isomer, unassigned) [Example 137, 3-(4-(dimethylcarbamoyl)phenyl)-3-(4-(3-(5,6,7,8-tetrahydro-1,8-naphthyridin-2-yl)propyl)thiazol-2-yl)propanoic acid]
4 | CN(C)C(=O)c1ccc(C(CC(=O)O)c2nc(CCCc3ccc4c(n3)NCCC4)cs2)cc1 (single isomer, unassigned) [Example 138, 3-(4-(dimethylcarbamoyl)phenyl)-3-(4-(3-(5,6,7,8-tetrahydro-1,8-naphthyridin-2-yl)propyl)thiazol-2-yl)propanoic acid]
34 | CN(C)C(=O)c1cccc(C(CC(=O)O)c2nc(CCCc3ccc4c(n3)NCCC4)cs2)c1 (single isomer, unassigned) [Example 139, 3-(3-(dimethylcarbamoyl)phenyl)-3-(4-(3-(5,6,7,8-tetrahydro-1,8-naphthyridin-2-yl)propyl)thiazol-2-yl)propanoic acid]
3.7 | CN(C)C(=O)c1cccc(C(CC(=O)O)c2nc(CCCc3ccc4c(n3)NCCC4)cs2)c1 (single isomer, unassigned) [Example 140, 3-(3-(dimethylcarbamoyl)phenyl)-3-(4-(3-(5,6,7,8-tetrahydro-1,8-naphthyridin-2-yl)propyl)thiazol-2-yl)propanoic acid]
2.9 | COc1ccc(C(CC(=O)O)c2nc(CCCc3ccc4c(n3)NCCC4)cs2)cc1OC (single isomer, unassigned) [Example 141, 3-(3,4-dimethoxyphenyl)-3-(4-(3-(5,6,7,8-tetrahydro-1,8-naphthyridin-2-yl)propyl)thiazol-2-yl)propanoic acid]
37 | COc1ccc(C(CC(=O)O)c2nc(CCCc3ccc4c(n3)NCCC4)cs2)cc1OC (single isomer, unassigned) [Example 142, 3-(3,4-dimethoxyphenyl)-3-(4-(3-(5,6,7,8-tetrahydro-1,8-naphthyridin-2-yl)propyl)thiazol-2-yl)propanoic acid]
88 | COc1ncc(C(CC(=O)O)c2nc(CCCCc3ccc4c(n3)NCCC4)cs2)cn1 (single isomer, unassigned) [Example 143, 3-(2-Methoxypyrimidin-5-yl)-3-(4-(4-(5,6,7,8-tetrahydro-1,8-naphthyridin-2-yl)butyl)thiazol-2-yl)propanoic acid]
7 | COc1ncc(C(CC(=O)O)c2nc(CCCCc3ccc4c(n3)NCCC4)cs2)cn1 (single isomer, unassigned) [Example 144, 3-(2-Methoxypyrimidin-5-yl)-3-(4-(4-(5,6,7,8-tetrahydro-1,8-naphthyridin-2-yl)butyl)thiazol-2-yl)propanoic acid]
140 | COc1ncc(C(CC(=O)O)c2nc(CCCc3ccc4c(n3)NCCC4)cs2)cn1 (single isomer, unassigned) [Example 146, 3-(2-methoxypyrimidin-5-yl)-3-(4-(3-(5,6,7,8-tetrahydro-1,8-naphthyridin-2-yl)propyl)thiazol-2-yl)propanoic acid]
1.9 | Cc1ncc(C(CC(=O)O)c2nc(CCCc3ccc4c(n3)NCCC4)cs2)cn1 (single isomer, unassigned) [Example 147, 3-(2-methylpyrimidin-5-yl)-3-(4-(3-(5,6,7,8-tetrahydro-1,8-naphthyridin-2-yl)propyl)thiazol-2-yl)propanoic acid]
6 | Cc1ncc(C(CC(=O)O)c2nc(CCCc3ccc4c(n3)NCCC4)cs2)cn1 (single isomer, unassigned) [Example 148, 3-(2-methylpyrimidin-5-yl)-3-(4-(3-(5,6,7,8-tetrahydro-1,8-naphthyridin-2-yl)propyl)thiazol-2-yl)propanoic acid]
7.2 | Cc1ncc(C(CC(=O)O)c2nc(CCCc3ccc4c(n3)NCCC4)cs2)cn1 (single isomer, unassigned) [Example 149, 3-(2-methylpyrimidin-5-yl)-3-(4-(3-(5,6,7,8-tetrahydro-1,8-naphthyridin-2-yl)propyl)thiazol-2-yl)propanoic acid]
87 | Cc1cncc(C(CC(=O)O)c2nc(CCCc3ccc4c(n3)NCCC4)cs2)c1 (single isomer, unassigned) [Example 150, 3-(5-methylpyridin-3-yl)-3-(4-(3-(5,6,7,8-tetrahydro-1,8-naphthyridin-2-yl)propyl)thiazol-2-yl)propanoic acid]
2.6 | Cc1cncc(C(CC(=O)O)c2nc(CCCc3ccc4c(n3)NCCC4)cs2)c1 (single isomer, unassigned) [Example 151, 3-(5-methylpyridin-3-yl)-3-(4-(3-(5,6,7,8-tetrahydro-1,8-naphthyridin-2-yl)propyl)thiazol-2-yl)propanoic acid]
180 | COc1ccc(C(CC(=O)O)c2csc(CCCc3ccc4c(n3)NCCC4)n2)cc1F (single isomer, unassigned) [Example 152, 3-(3-fluoro-4-methoxyphenyl)-3-(2-(3-(5,6,7,8-tetrahydro-1,8-naphthyridin-2-yl)propyl)thiazol-4-yl)propanoic acid]
210 | COc1ccc(C(CC(=O)O)c2nc(CCCC3CCc4cccnc4N3)cs2)cn1 (single isomer, unassigned) [Example 154, 3-(6-methoxypyridin-3-yl)-3-(4-(3-(1,2,3,4-tetrahydro-1,8-naphthyridin-2-yl)propyl)thiazol-2-yl)propanoic acid]
8.1 | COc1ccc(C(CC(=O)O)c2nc(CCCC3CCc4cccnc4N3)cs2)cn1 (single isomer, unassigned) [Example 155, 3-(6-methoxypyridin-3-yl)-3-(4-(3-(1,2,3,4-tetrahydro-1,8-naphthyridin-2-yl)propyl)thiazol-2-yl)propanoic acid]
260 | COc1ccc(C(CC(=O)O)c2nc(CCCC3CCc4cccnc4N3)cs2)cn1 (single isomer, unassigned) [Example 156, 3-(6-methoxypyridin-3-yl)-3-(4-(3-(1,2,3,4-tetrahydro-1,8-naphthyridin-2-yl)propyl)thiazol-2-yl)propanoic acid]
27 | COc1ccc(C(CC(=O)O)c2nc(CCCC3CCc4cccnc4N3)cs2)cn1 (single isomer, unassigned) [Example 157, 3-(6-methoxypyridin-3-yl)-3-(4-(3-(1,2,3,4-tetrahydro-1,8-naphthyridin-2-yl)propyl)thiazol-2-yl)propanoic acid]
7 | COc1ccc(C(CC(=O)O)c2nc(CCCC3CCc4cccnc4N3)cs2)cc1F (single isomer, unassigned) [Example 158, 3-(3-fluoro-4-methoxyphenyl)-3-(4-(3-(1,2,3,4-tetrahydro-1,8-naphthyridin-2-yl)propyl)thiazol-2-yl)propanoic acid]
